From patent publication US10244756B2, “Fungicidal N-cycloalkyl-N-{[ortho-(1-substituted-cycloalkyl)heteroaryl]methyl}(thio)carboxamides” (Bayer CropScience Aktiengesellschaft, priority 2015, dated 2019) come the findings set out here.

One data set deals with Puccinia recondita. The data set is described as follows: In vivo preventive test on Puccinia recondita (brown rust on wheat). The note with it: Table A2, dose 100 ppm, evaluated 11 days after inoculation. Here is the method: (§1) Example A: In Vivo Preventive Test on Puccinia Recondita (Brown Rust on Wheat) Solvent: 5% by volume of Dimethyl sulfoxide • 10% by volume of Acetone Emulsifier: 1 μL of Tween® 80 per mg of active ingredient The active ingredients are made soluble and homogenized in a mixture of Dimethyl sulfoxide/Acetone/Tween® 80 and then diluted in water to the desired concentration. The young plants of wheat are treated by spraying the active ingredient prepared as described above. Control plants are treated only with an aqueous solution of Acetone/Dimethyl sulfoxide/Tween® 80. After 24 hours, the plants are contaminated by spraying the leaves with an aqueous suspension of Puccinia recondita spores. The contaminated wheat plants are incubated for 24 hours at 20° C. and at 100% relative humidity and then for 10 days at 20° C. and at 70-80% relative humidity. The test is evaluated 11 days after the inoculation. 0% means an efficacy which corresponds to that of the control plants while an efficacy of 100% means that no disease is observed.

The subject of the next data set is Uromyces appendiculatus. The data set is described as follows: In vivo preventive test on Uromyces appendiculatus (bean rust). The note with it: Table B2, dose 100 ppm, evaluated 11 days after inoculation. Here is the method: as §1, with “B:” for “A:”, “Uromyces Appendiculatus (Bean Rust)” for “Puccinia Recondita (Brown Rust on Wheat)”, “bean” for “wheat”, “Uromyces appendiculatus” for “Puccinia recondita”

The nature of data set [1]: logP by HPLC on reversed-phase column (C 18), EEC Directive 79/831 Annex V.A8. Type of data set: physicochemical. To be noted: reversed-phase HPLC column (C 18), 40° C., 0.1% aqueous formic acid and acetonitrile, gradient 10% to 90% acetonitrile. Here is the method: In table 1, the logP values were determined in accordance with EEC Directive 79/831 Annex V.A8 by HPLC (High Performance Liquid Chromatography) on a reversed-phase column (C 18), using the method described below: Temperature: 40° C.; Mobile phases: 0.1% aqueous formic acid and acetonitrile; linear gradient from 10% acetonitrile to 90% acetonitrile. Calibration was carried out using unbranched alkan-2-ones (comprising 3 to 16 carbon atoms) with known logP values (determination of the logP values by the retention times using linear interpolation between two successive alkanones). lambda-max-values were determined using UV-spectra from 200 nm to 400 nm and the peak values of the chromatographic signals.

As for `CC(C)c1ncc(Cl)cc1CN(C(=O)c1cn(C)nc1C(F)F)C1CC1` [CMP1, N-[(5-chloro-2-isopropylpyridin-3-yl)methyl]-N-cyclopropyl-3-(difluoromethyl)-1-methyl-1H-pyrazole-4-carboxamide], the Efficacy in the data set on Puccinia recondita and with Uromyces appendiculatus was 0% in each case.
Turning to `Cc1cc(C2(Cl)CC2)c(CN(C(=O)c2cn(C)nc2C(F)F)C2CC2)s1` [Example I.05, N-{[3-(1-chlorocyclopropyl)-5-methyl-2-thienyl]methyl}-N-cyclopropyl-3-(difluoromethyl)-1-methyl-1H-pyrazole-4-carboxamide], in data set [1], the chromatographic logP (as a rule, lipophilicity estimated from chromatographic retention) worked out at 3.39.
